In the supplement of paper PMC11061612:

What was measured:
Assay in all cases: Bliss excess, mean over the matrix (fraction); higher = more synergy
EW-24 (Ewing's Sarcoma) = test system: EW-24 (Ewing's Sarcoma)
In short: (§1)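 Cell lines in DMEM/F12 or RPMI with 10% FBS were plated in 1536-well plates, held 24 hours at 37°C, 5% CO2, then given two-drug dose matrices for 72 hours (DMSO typically 0.2%). Viability was read by CellTiter-Glo 2.0 luminescence and scaled as inhibition from 0 (vehicle wells) to 1 (blank wells). Combination Emax is the second-highest inhibition in the matrix; Bliss excess is observed combination effect minus expected EA + EB − EA·EB, EA and EB being single-agent effects.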

[1] = test system: NCI-H1915 (Non-Small Cell Lung Carcinoma)
In short: as §1

[2] = test system: MIA-PaCa-2 (Pancreatic Carcinoma)
In short: as §1

[3] = test system: EFM-19 (Breast Carcinoma)
In short: as §1

[4] = test system: SW13 (Other Solid Carcinomas)
In short: as §1

UACC-62 (Melanoma) = test system: UACC-62 (Melanoma)
In short: as §1

[5] = test system: OVCAR-4 (Ovarian Carcinoma)
In short: as §1

PWR-1E (Non-Cancerous) = test system: PWR-1E (Non-Cancerous)
In short: as §1

[6] = test system: AMO-1 (Plasma Cell Myeloma)
In short: as §1

[7] = test system: NCI-H727 (Other Solid Carcinomas)
In short: as §1

[8] = test system: BT-549 (Breast Carcinoma)
In short: as §1

[9] = test system: RF-48 (B-Cell Non-Hodgkin's Lymphoma)
In short: as §1

NB69 (Neuroblastoma) = test system: NB69 (Neuroblastoma)
In short: as §1

[10] = test system: C-4-I (Cervical Carcinoma)
In short: as §1

[11] = test system: MLMA (Other Blood Carcinomas)
In short: as §1

[12] = test system: VA-ES-BJ (Other Solid Carcinomas)
In short: as §1

[13] = test system: SU8686 (Pancreatic Carcinoma)
In short: as §1

[14] = test system: EoL-1-cell (Acute Myeloid Leukemia)
In short: as §1

[15] = test system: HGC-27 (Gastric Carcinoma)
In short: as §1

D-263MG (Glioblastoma) = test system: D-263MG (Glioblastoma)
In short: as §1

SMILES | Bliss excess (EW-24 (Ewing's Sarcoma)) | Bliss excess [1] | Bliss excess [2] | Bliss excess [3] | Bliss excess [4] | Bliss excess (UACC-62 (Melanoma)) | Bliss excess [5] | Bliss excess (PWR-1E (Non-Cancerous)) | Bliss excess [6] | Bliss excess [7] | Bliss excess [8] | Bliss excess [9] | Bliss excess (NB69 (Neuroblastoma)) | Bliss excess [10] | Bliss excess [11] | Bliss excess [12] | Bliss excess [13] | Bliss excess [14] | Bliss excess [15] | Bliss excess (D-263MG (Glioblastoma))
NC1(C(=O)N[C@@H](CCO)c2ccc(Cl)cc2)CCN(c2ncnc3[nH]ccc23)CC1 [Capivasertib] + Cn1cnc2c(F)c(Nc3ccc(Br)cc3Cl)c(C(=O)NOCCO)cc21 [Selumetinib] (first compound max 10 µM, 7x7, partner max 10 µM) | -0.0223 | 0.0366 | 0.0259 | -0.034 | 0.102 | 0.0562 | -0.0254 | -0.0246 | 0.0678 | -0.0113 | 0.01 | -0.0343 | 0.0278 | 0.0609 | 0.0032 | 0.0015 | 0.0012 | 0.077 | -0.0414 | 0.0028
CC(=O)c1c(C)c2cnc(Nc3ccc(N4CCNCC4)cn3)nc2n(C2CCCC2)c1=O [Palbociclib] + CC1(C)CCC(CN2CCN(c3ccc(C(=O)NS(=O)(=O)c4ccc(NCC5CCOCC5)c([N+](=O)[O-])c4)c(Oc4cnc5[nH]ccc5c4)c3)CC2)=C(c2ccc(Cl)cc2)C1 [Venetoclax] (first compound max 10 µM, 7x7, partner max 1 µM) | 0.0021 | 0.0174 | -0.0392 | -0.0475 | -0.0444 | -0.0678 | -0.0523 | -0.0229 | -0.0284 | 0.0029 | -0.034 | -0.112 | 0.0084 | -0.0464 | -0.15 | 0.0104 | -0.0391 | 0.0515 | 0.046 | -0.0043
COc1cccc(OCCCN)c1-c1cc(Nc2cnc(C#N)cn2)n[nH]1 [Prexasertib] + CN(C)CCCOc1ccc(-c2ccc3ncc4c(c3c2)n(C2CCOCC2)c(=O)n4C)cn1 [AZD0156] (first compound max 1 µM, 7x7, partner max 1 µM) | -0.0082 | -0.0086 | -0.0391 | -0.0701 | 0.0256 | 0.0155 | 0.0086 | -0.0276 | -0.0341 | -0.0646 | -0.0094 | 0.0213 | 0.0064 | -0.0273 | -0.0349 | -0.0395 | -0.0068 | -0.0145 | -0.0193 | 0.0273
Cn1cnc2c(F)c(Nc3ccc(Br)cc3Cl)c(C(=O)NOCCO)cc21 [Selumetinib] + CCN(CCO)CCCOc1ccc2c(Nc3cc(CC(=O)Nc4cccc(F)c4)[nH]n3)ncnc2c1 [AZD2811] (first compound max 10 µM, 7x7, partner max 1 µM) | -0.014 | -0.038 | 0.0585 | 0.0054 | -0.0919 | -0.0289 | -0.0468 | -0.0175 | 0.0538 | -0.0389 | -0.0216 | -0.0305 | -0.0155 | 0.0582 | -0.026 | -0.0263 | -0.0179 | 0.0206 | -0.0515 | -0.0385
NC1(C(=O)N[C@@H](CCO)c2ccc(Cl)cc2)CCN(c2ncnc3[nH]ccc23)CC1 [Capivasertib] + CC(C)n1c(=O)n(C)c2cnc3cc(F)c(-c4ccc(OCCCN5CCCCC5)nc4)cc3c21 [AZD1390] (first compound max 10 µM, 7x7, partner max 0.3 µM) | -0.218 | -0.0621 | -0.048 | -0.0614 | 0.0127 | -0.0888 | -0.0488 | -0.0341 | 0.0042 | -0.0922 | -0.071 | -0.0052 | -0.0787 | -0.027 | -0.0216 | -0.0467 | -0.0484 | -0.0173 | -0.053 | -0.0713
COc1nnc2ccc(N3CCC(c4ccc(OCCN5CCN(C)C(=O)[C@H]5C)cc4)CC3)nn12 [AZD5153] + CCN(CCO)CCCOc1ccc2c(Nc3cc(CC(=O)Nc4cccc(F)c4)[nH]n3)ncnc2c1 [AZD2811] (first compound max 1 µM, 7x7, partner max 1 µM) | -0.0598 | -0.0764 | 0.0109 | -0.0262 | -0.0368 | -0.0564 | -0.0568 | -0.0096 | -0.0109 | -0.0469 | -0.0576 | 0.0065 | -0.0087 | 0.0165 | -0.0434 | -0.0342 | -0.0309 | 0.003 | -0.102 | -0.0231
Cn1cnc2c(F)c(Nc3ccc(Br)cc3Cl)c(C(=O)NOCCO)cc21 [Selumetinib] + CC(C)n1c(=O)n(C)c2cnc3cc(F)c(-c4ccc(OCCCN5CCCCC5)nc4)cc3c21 [AZD1390] (first compound max 10 µM, 7x7, partner max 0.3 µM) | -0.0594 | -0.061 | -0.0287 | -0.0264 | 0.0129 | -0.0092 | -0.0512 | -0.0467 | 0.0291 | -0.0229 | -0.0438 | -0.056 | -0.0538 | -0.0078 | -0.0186 | -0.0471 | -0.0255 | 0.0004 | -0.0129 | -0.0352
